Laboratory results reported in ChEMBL document CHEMBL1126757, “Benzoquinazoline inhibitors of thymidylate synthase: enzyme inhibitory activity and cytotoxicity of some 3-amino- and 3-methylbenzo[f]quinazolin-1(2H)-ones” (J Med Chem, 1993).

Columns and labels:
Thymidylate synthase [1] = biological target: T1, Thymidylate synthase (Escherichia coli, UniProt C3SWJ7); assay: Inhibition against thymidylate synthase (TS) in Escherichia coli; settings: read-out: I50
Thymidylate synthase [2] = biological target: T2, Thymidylate synthase (Homo sapiens, UniProt P04818)
Target sequence in this assay (P04818 whole entry): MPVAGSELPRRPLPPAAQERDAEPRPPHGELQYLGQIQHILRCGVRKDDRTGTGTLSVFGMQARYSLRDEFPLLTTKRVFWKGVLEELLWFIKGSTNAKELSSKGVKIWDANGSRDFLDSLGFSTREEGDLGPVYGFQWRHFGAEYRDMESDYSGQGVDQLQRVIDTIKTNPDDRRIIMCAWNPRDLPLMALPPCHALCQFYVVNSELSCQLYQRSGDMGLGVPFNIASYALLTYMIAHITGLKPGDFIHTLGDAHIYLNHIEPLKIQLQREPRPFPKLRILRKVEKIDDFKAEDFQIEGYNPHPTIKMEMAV

SW480 = assay: cells; settings: Homo sapiens
Thymidylate synthase [3] = biological target: T1, Thymidylate synthase; assay: Tested against thymidylate synthase (TS) in E. coli; settings: read-out: I50
Thymidylate synthase [4] = biological target: T1, Thymidylate synthase; assay: Tested for inhibition against thymidylate synthase (TS) in Escherichia coli
Thymidylate synthase [5] = biological target: T2, Thymidylate synthase; assay: Tested for inhibition against thymidylate synthase (TS) in human
Target sequence in this assay (P04818 whole entry): as above

[6] = biological target: Thymidylate synthase (Escherichia coli) (UniProt C3SWJ7); assay: Tested for percent inhibition against thymidylate synthase (TS) in Escherichia coli at 764.0 uM
Chain of Thymidylate synthase (Escherichia coli) (C3SWJ7 1-264): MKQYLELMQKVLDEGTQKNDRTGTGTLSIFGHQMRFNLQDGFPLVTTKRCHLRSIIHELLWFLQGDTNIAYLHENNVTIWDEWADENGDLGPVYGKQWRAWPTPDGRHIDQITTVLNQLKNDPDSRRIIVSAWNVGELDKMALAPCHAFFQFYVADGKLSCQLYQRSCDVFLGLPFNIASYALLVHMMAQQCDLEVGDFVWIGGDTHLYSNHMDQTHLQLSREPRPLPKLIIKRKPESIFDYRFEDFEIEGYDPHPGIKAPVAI

[7] = test system: Thymidylate synthase (Bos taurus); assay: Tested against thymidylate synthase (TS) in calf thymus at 765 uM
[8] = test system: Thymidylate synthase (Candida albicans); assay: Tested for percent inhibition against thymidylate synthase (TS) in Candida albicans at 63.2 uM
Thymidylate synthase [9] = biological target: T2, Thymidylate synthase; assay: Tested for percent inhibition against thymidylate synthase (TS) in human at 63 uM
Target sequence in this assay (P04818 2-313 limits assumed): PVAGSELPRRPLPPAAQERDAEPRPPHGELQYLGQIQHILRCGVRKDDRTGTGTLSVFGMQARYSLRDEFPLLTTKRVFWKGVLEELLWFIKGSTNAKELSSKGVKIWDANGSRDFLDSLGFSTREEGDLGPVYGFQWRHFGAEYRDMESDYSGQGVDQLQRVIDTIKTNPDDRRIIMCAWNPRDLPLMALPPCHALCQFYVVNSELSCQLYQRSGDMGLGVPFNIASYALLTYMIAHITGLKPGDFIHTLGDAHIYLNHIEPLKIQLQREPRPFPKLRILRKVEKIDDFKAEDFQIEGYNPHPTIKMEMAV

[10] = biological target: Thymidylate synthase (Escherichia coli) (UniProt C3SWJ7); assay: Tested for percent inhibition against thymidylate synthase (TS) in Escherichia coli at 63.2 uM

T1 sequence (C3SWJ7 whole entry): as the sequence (C3SWJ7 1-264) above

Structure (SMILES) | IC50 (Thymidylate synthase [1]) | IC50 (Thymidylate synthase [2]) | IC50 (SW480) | also measured
Nc1nc2ccc3c([N+](=O)[O-])c(Br)ccc3c2c(=O)[nH]1 | 104 µM |  |  | 
Nc1nc2c(c(=O)[nH]1)-c1cc(O)ccc1CC2 | 12 µM | 8.4 µM | > 100 µM | 
Cc1cc2nc(N)[nH]c(=O)c2c2ccc(Cl)cc12 |  | 6.9 µM |  | 
Cc1nc(O)c2c(ccc3ccccc32)n1 |  |  | > 100 µM | IC50 (Thymidylate synthase [3]): 30.1 µM
O=CNc1nc(O)c2c(ccc3ccc(Br)cc32)n1 |  | 0.54 µM | 7 µM | 
CCc1ccc2ccc3nc(N)nc(O)c3c2c1 | 7.7 µM | 0.49 µM | 20 µM | 
Cc1nc2c(c(=O)[nH]1)-c1cccc(Cl)c1CC2 |  | 193 µM | > 100 µM | 
C#Cc1ccc2ccc3nc(N)nc(O)c3c2c1 | 14 µM | 0.6 µM | 20 µM | 
Nc1nc2c(c(=O)[nH]1)-c1ccc3ccccc3c1CC2 |  |  | 30 µM | IC50 (Thymidylate synthase [4]): 36 µM
CCSc1ccc2c(c1)-c1c(nc(N)[nH]c1=O)CC2 | 31.7 µM |  | 40 µM | 
Nc1nc2c(c(=O)[nH]1)-c1cc(Cl)c(Cl)cc1CC2 | 6.7 µM |  |  | IC50 (Thymidylate synthase [5]): 2.96 µM
Cc1nc2c(c(=O)[nH]1)-c1cc(Cl)ccc1CC2 |  |  | > 100 µM | IC50 (Thymidylate synthase [3]): 18.8 µM
Nc1nc2ccc3c(Br)c(N)c(Br)cc3c2c(=O)[nH]1 | 25 µM |  |  | 
Cc1cccc2c1CCc1nc(N)[nH]c(=O)c1-2 | 59 µM |  |  | 
Cc1ccc2c(c1)-c1c(O)nc(N)nc1CC2 | 5.8 µM | 0.72 µM | > 100 µM | 
Nc1nc(O)c2c(ccc3cc(F)cc(N)c32)n1 | 47.1 µM | 73.8 µM | 70 µM | 
Cc1nc2c(c(=O)[nH]1)-c1cc(Br)ccc1CC2 | 8.69 µM |  | 65 µM | 
Nc1nc(O)c2c(cc(CO)c3ccccc32)n1 | 102 µM | 8.6 µM | > 100 µM | 
Nc1nc(O)c2c(ccc3c([N+](=O)[O-])c(F)ccc32)n1 | 403 µM | 552 µM | 30 µM | 
CCSc1ccc2ccc3nc(N)nc(O)c3c2c1 | 4.3 µM | 3.28 µM |  | 
CSc1ccc2c(c1)-c1c(nc(N)[nH]c1=O)CC2 | 1.2 µM |  | 60 µM | 
Nc1nc(O)c2c(ccc3cc(F)cc([N+](=O)[O-])c32)n1 |  |  | 50 µM | inhibition [6]: 41%
Nc1nc2ccc3cc(Cl)ccc3c2c(=O)[nH]1 |  | 45.4 µM |  | 
Cc1nc(O)c2c(n1)CCc1ccc(F)cc1-2 | 32.8 µM |  | > 100 µM | 

Structure (SMILES) | IC50 (Thymidylate synthase [1]) | IC50 (Thymidylate synthase [2]) | IC50 (SW480) | also measured
Cc1nc(O)c2c(ccc3ccc(F)cc32)n1 |  |  | 100 µM | IC50 (Thymidylate synthase [3]): 29.6 µM
Nc1nc(O)c2c(ccc3ccc(Br)c(N)c32)n1 | 0.64 µM | 0.36 µM | 30 µM | 
C=Cc1ccc2ccc3nc(N)nc(O)c3c2c1 | 1.1 µM | 0.12 µM | 6 µM | 
Nc1nc(O)c2c(n1)CCc1ccccc1-2 | 7 µM |  | > 100 µM | 
Oc1nc(NCc2ccccc2)nc2ccc3c(Br)cccc3c12 | 0.63 µM | 0.52 µM | 60 µM | 
COc1cc2c(cc1OC)-c1c(O)nc(N)nc1CC2 | 762 µM |  |  | inhibition [7]: 25%
Cc1cc2nc(N)[nH]c(=O)c2c2ccccc12 | 1 µM |  |  | 
COc1ccc2c(c1)CCc1nc(N)nc(O)c1-2 | 240 µM |  |  | 
Cc1cc(C)c2c(c1)-c1c(nc(N)[nH]c1=O)CC2 |  |  | > 100 µM | IC50 (Thymidylate synthase [4]): 13 µM
Nc1nc2c(c(=O)[nH]1)-c1cccc(F)c1CC2 | 99 µM | 83.6 µM | > 100 µM | 
Cc1nc(O)c2c(ccc3c(Br)cccc32)n1 |  |  | 50 µM | 
Cc1nc(O)c2c(ccc3ccc(Br)cc32)n1 | 6.9 µM |  | 6 µM | 
Cc1nc(O)c2c(ccc3ccc(Cl)cc32)n1 |  |  | 10 µM | 
Nc1ccc2ccc3nc(N)nc(O)c3c2c1 | 0.6 µM | 0.63 µM | 80 µM | 
Nc1nc2c(c(=O)[nH]1)-c1ccc(F)cc1CC2 | 750 µM |  | 80 µM | 
Nc1nc2ccc3c(F)cccc3c2c(=O)[nH]1 | 208 µM | 25 µM | 30 µM | 
Cc1nc(O)c2c(n1)CCc1ccc(I)cc1-2 |  |  |  | IC50 (Thymidylate synthase [3]): 19.8 µM
Nc1nc2ccc3cccc([N+](=O)[O-])c3c2c(=O)[nH]1 | 9.8 µM | 2.31 µM | > 100 µM | 
Nc1nc2c(c(=O)[nH]1)-c1cc(Br)c(N)cc1CC2 | 2.9 µM |  | 15 µM | 
Nc1nc(O)c2c(n1)CCc1ccc(F)cc1-2 | 4 µM |  | 80 µM | 
COc1ccc2ccc3nc(N)nc(O)c3c2c1 | 5 µM |  | 20 µM | IC50 (Thymidylate synthase [5]; read-out: I50): 1.6 µM
COCc1cc2nc(N)nc(O)c2c2ccccc12 |  | 15 µM | 60 µM | 
Nc1ccc2c(ccc3nc(N)nc(O)c32)c1 |  | 7.5 µM | 100 µM | 
CCOc1ccc2ccc3nc(N)nc(O)c3c2c1 |  | 4.2 µM | 20 µM | 

Structure (SMILES) | IC50 (Thymidylate synthase [1]) | IC50 (Thymidylate synthase [2]) | IC50 (SW480) | also measured
Nc1nc2ccc3c(Br)cccc3c2c(=O)[nH]1 |  | 8.9 µM |  | 
Nc1nc2c(c(=O)[nH]1)-c1cc(Br)c([N+](=O)[O-])cc1CC2 | 97.5 µM |  | 12 µM | 
Cc1ccc2ccc3nc(N)nc(O)c3c2c1 | 1.47 µM | 0.178 µM | 30 µM | 
COc1cccc2c1CCc1nc(N)nc(O)c1-2 | 250 µM |  |  | 
Nc1nc(O)c2c(ccc3ccc(Br)cc32)n1 | 0.267 µM | 0.022 µM | 10 µM | 
Nc1nc(O)c2c(n1)CCc1cc([N+](=O)[O-])ccc1-2 | 43 µM |  |  | 
Nc1nc(O)c2c(ccc3cc(Br)c([N+](=O)[O-])cc32)n1 | 28 µM |  |  | 
Nc1ccc2c(c1)-c1c(nc(N)[nH]c1=O)CC2 | 16.9 µM | 13.5 µM | > 100 µM | 
CC1Cc2nc(N)nc(O)c2-c2ccccc21 (stereo unspecified) | 23 µM |  |  | 
Oc1nc(NCc2ccccc2)nc2ccc3ccc(Cl)cc3c12 |  |  | 12 µM | 
C#Cc1ccc2c(c1)-c1c(nc(N)[nH]c1=O)CC2 | 26.3 µM |  | 35 µM | 
CC1(C)Cc2nc(N)nc(O)c2-c2ccccc21 | 49.6 µM | 43.9 µM |  | 
Nc1nc(O)c2c(n1)CCc1ccc(Br)cc1-2 | 2 µM |  | 25 µM | 
Nc1nc2ccc3c(Cl)cccc3c2c(=O)[nH]1 |  | 26 µM |  | 
Nc1nc2ccc3c(I)cccc3c2c(=O)[nH]1 | 6.3 µM | 1.31 µM | 10 µM | 
Cc1cc2nc(N)nc(O)c2c2cc(Cl)ccc12 | 0.17 µM | 0.02 µM | 2 µM | 
Cc1nc(O)c2c(ccc3c(I)cccc32)n1 |  |  | 50 µM | 
Cc1nc2c(c(=O)[nH]1)-c1ccccc1CC2 | 119 µM |  | > 100 µM | 
Nc1nc2ccc3cc([N+](=O)[O-])c(Br)cc3c2c(=O)[nH]1 | 31 µM | 3.12 µM | 2.5 µM | 
Nc1nc(O)c2c(ccc3c([N+](=O)[O-])cccc32)n1 |  |  |  | inhibition [8]: 0%; inhibition (Thymidylate synthase [9]): 23%; inhibition [10]: 29%
Nc1nc2ccc3cc(Cl)c(Cl)cc3c2c(=O)[nH]1 | 5.4 µM | 0.71 µM | 20 µM | 
Nc1nc(O)c2c(n1)CCc1ccc(I)cc1-2 | 5 µM |  | 15 µM | 
Nc1nc2c(c(=O)[nH]1)-c1cc(Cl)ccc1CC2 | 1.6 µM |  | 25 µM | 
Nc1cc(N)c2c(ccc3nc(N)nc(O)c32)c1 | 5.12 µM | 7.8 µM | > 100 µM | 

Structure (SMILES) | IC50 (Thymidylate synthase [1]) | IC50 (Thymidylate synthase [2]) | IC50 (SW480) | also measured
Cc1nc(O)c2c(ccc3c(Cl)cccc32)n1 |  |  | 50 µM | 
Nc1nc2c(c(=O)[nH]1)-c1cccc(Br)c1CC2 | 109 µM |  |  | 
Nc1nc2ccc3ccccc3c2c(=O)[nH]1 | 7 µM | 1.08 µM | 52 µM | 
Cc1cccc2c1ccc1nc(N)nc(O)c12 | 18.1 µM | 7.5 µM | 35 µM | 
Nc1nc(O)c2c(ccc3c(N)cccc32)n1 | 39 µM | 15.2 µM | > 100 µM | 
Nc1nc(O)c2c(ccc3ccc(I)cc32)n1 | 0.323 µM | 0.022 µM | 5 µM | 
Nc1nc2ccc3cc(F)cc([N+](=O)[O-])c3c2c(=O)[nH]1 |  | 34.5 µM |  | 
Nc1nc2ccc3ccc(Cl)cc3c2c(=O)[nH]1 | 0.52 µM | 0.025 µM | 3 µM | 
Cc1cc(C)c2ccc3nc(N)[nH]c(=O)c3c2c1 | 5 µM |  |  | 
Nc1nc2ccc3c(N)c(Br)ccc3c2c(=O)[nH]1 |  | 16.8 µM | 20 µM | 
Nc1nc(O)c2c(ccc3ccc(Br)c([N+](=O)[O-])c32)n1 |  | 0.23 µM | 20 µM | 
Nc1ccc2c(c1)CCc1nc(N)[nH]c(=O)c1-2 | 89 µM |  |  | 
CC1Cc2nc(N)nc(O)c2-c2cc(Cl)ccc21 (stereo unspecified) | 3.6 µM | 0.37 µM |  | 
COc1ccc2c(c1)-c1c(O)nc(N)nc1CC2 | 6 µM | 3.6 µM | 25 µM | 
Nc1nc(O)c2c(ccc3cc(N)c(Br)cc32)n1 | 2.8 µM | 0.34 µM | 15 µM | 
CSc1ccc2ccc3nc(N)nc(O)c3c2c1 | 1.6 µM | 0.46 µM |  | 
Nc1nc2ccc3ccc(O)cc3c2c(=O)[nH]1 | 1.84 µM | 0.48 µM | 40 µM | 
Nc1nc2ccc3cc([N+](=O)[O-])cc([N+](=O)[O-])c3c2c(=O)[nH]1 | 104 µM | 145 µM |  | 
Nc1nc2ccc3cc(F)ccc3c2c(=O)[nH]1 | 231 µM | 44 µM | 50 µM | 
Nc1nc2c(c(=O)[nH]1)-c1ccc(Cl)cc1CC2 | 334 µM |  |  | 
Nc1nc(O)c2c(ccc3ccc(F)cc32)n1 | 2.4 µM | 0.5 µM | 10 µM | 
